How the values were obtained:
[1] = system: LPS-induced IL-6 expression in C57/B6 mice; assay: LPS-induced acute septic shock model (IL-6 in plasma, hippocampus, cortex); format: in vivo, mouse; conditions: 1 mg/kg LPS i.p., HAK-2 in parallel, 2 h
Method: A total number of 20 C57/B6 mice at the age of 5 months with an initial body weight of 22 g to 30 g was analyzed in this study. Mice were randomly assigned to 2 groups of control mice (injection of saline or LPS; n = 6 each) and 1 group of LPS-treated mice co-injected with compound HAK-2 (n = 8). Animals were housed at the Experimental Animal Core Facility of the University of Leipzig. The study was approved by the Regierungspräsidium Leipzig, License # TVV 28/07 on November 14, 2007. To induce septic shock and acute inflammation, 14 mice were injected intraperitoneally (i.p.) with 1 mg LPS (Serotyp 055:B5)/kg body weight. Saline injection i.p. was used as control treatment (n = 6). […] Two hours post treatment mice were sacrificed by CO2 inhalation and tissue samples from hippocampus and cortex as well as plasma were prepared as described later.
Mouse brain samples for qRT-PCR were prepared from 6 - 8 animals per group. After removal of the brain, the tissue samples were flushed shortly with ice cold saline and placed briefly on filter paper. Cortex and hippocampus were prepared, weighted and snap frozen in liquid nitrogen. Samples were stored at -80°C until RNA isolation. […]
Total RNA of cultured cells and homogenized mouse brain tissue samples was isolated using RNA isolation kit "NucleoSpin RNA II" from Macherey and Nagel. RNA quantity was measured by spectrophotometrical quantification (NanoDrop 2000, Peqlab, Erlangen, Germany). […] Quantitative real-time PCR was performed with QuantiFast SYBR Green PCR Master mix (Qiagen, Hilden, Germany) using Rotorgene 3000 system (Corbett, Sydney, Australia). […] Data were analyzed by Rotorgene 3000 Software version 6.0 by comparative quantitation. […]
Figure 6 Suppression of LPS-induced IL-6 expression in vivo by compound HAK-2. […] After 2 hours treatment, samples from hippocampus (A), cortex (B) and plasma (C) were prepared and analyzed by qRT-PCR and ELISA, respectively. […] Statistically significant differences between LPS group and LPS + HAK-2 group were calculated using the unpaired t-test (*p < 0.05; **p < 0.01; ***p < 0.001).

[2] = system: OSM-stimulated IL-6 secretion from U343 cells; assay: OSM-induced IL-6 release from U343 glioma cells (IL-6 ELISA of conditioned medium); format: cell-based, human
Method: The human glioma cell line U343 [34] was maintained in DMEM containing 10% fetal bovine serum and 60 μg/ml gentamycin (Invitrogen, Darmstadt, Germany) at 37°C in a 10% CO2 atmosphere.
Measurements of IL-6 in conditioned medium and murine plasma samples were done by means of human- or murine-specific IL-6 Cytoset kits (Invitrogen, Darmstadt, Germany) according to manufacturer's protocols.
Using the characterized cell culture model of OSM-induced IL-6 expression, our in-house compound libraries were screened for potent IL-6 expression inhibitors. Human U343 glioma cells were treated with 100 ng/ml OSM for 24 h. The analysis by IL-6 ELISA identified a set of structurally related compounds as potent inhibitors of IL-6 secretion (Table 1). […] HAKs with proline in position P1 are known from the literature as inhibitors of prolyl endopeptidase (PREP), a proline-specific serine protease.

C[C@H](NC(=O)OCc1ccccc1)C(=O)N1CCC[C@H]1C(=O)c1nc2ccccc2s1 [HAK-2, Z-Ala-Pro-BTh]
Reduction of induced IL-6 mRNA in cortex [1]: 53% | Reduction of induced IL-6 mRNA in hippocampus [1]: 60% | Reduction of plasma level of IL-6 protein vs LPS alone [1]: 55% | Remaining IL-6 expression [% of control] ([2]; 100 ng/ml OSM, 24 h, IL-6 release of vehicle-treated cells set to 100% (n = 2), mean ± SD): 18.7 ± 3.87 % of control | Effect on OSM-induced IL-6 secretion (in words) ([2]; OSM-stimulated): significantly reduced
